Laboratory results as given in ChEMBL document CHEMBL1201862, “PubChem BioAssay data set” (2004).
Active and inactive are the calls of the source. Rule as the data show it: actives have a measured IC50 and inactives only a lower limit.

Assays:
Assay type in all cases: functional
[1] = target: T1, Apoptotic protease-activating factor 1 (Homo sapiens, UniProt O14727)
T1 sequence (O14727 whole entry): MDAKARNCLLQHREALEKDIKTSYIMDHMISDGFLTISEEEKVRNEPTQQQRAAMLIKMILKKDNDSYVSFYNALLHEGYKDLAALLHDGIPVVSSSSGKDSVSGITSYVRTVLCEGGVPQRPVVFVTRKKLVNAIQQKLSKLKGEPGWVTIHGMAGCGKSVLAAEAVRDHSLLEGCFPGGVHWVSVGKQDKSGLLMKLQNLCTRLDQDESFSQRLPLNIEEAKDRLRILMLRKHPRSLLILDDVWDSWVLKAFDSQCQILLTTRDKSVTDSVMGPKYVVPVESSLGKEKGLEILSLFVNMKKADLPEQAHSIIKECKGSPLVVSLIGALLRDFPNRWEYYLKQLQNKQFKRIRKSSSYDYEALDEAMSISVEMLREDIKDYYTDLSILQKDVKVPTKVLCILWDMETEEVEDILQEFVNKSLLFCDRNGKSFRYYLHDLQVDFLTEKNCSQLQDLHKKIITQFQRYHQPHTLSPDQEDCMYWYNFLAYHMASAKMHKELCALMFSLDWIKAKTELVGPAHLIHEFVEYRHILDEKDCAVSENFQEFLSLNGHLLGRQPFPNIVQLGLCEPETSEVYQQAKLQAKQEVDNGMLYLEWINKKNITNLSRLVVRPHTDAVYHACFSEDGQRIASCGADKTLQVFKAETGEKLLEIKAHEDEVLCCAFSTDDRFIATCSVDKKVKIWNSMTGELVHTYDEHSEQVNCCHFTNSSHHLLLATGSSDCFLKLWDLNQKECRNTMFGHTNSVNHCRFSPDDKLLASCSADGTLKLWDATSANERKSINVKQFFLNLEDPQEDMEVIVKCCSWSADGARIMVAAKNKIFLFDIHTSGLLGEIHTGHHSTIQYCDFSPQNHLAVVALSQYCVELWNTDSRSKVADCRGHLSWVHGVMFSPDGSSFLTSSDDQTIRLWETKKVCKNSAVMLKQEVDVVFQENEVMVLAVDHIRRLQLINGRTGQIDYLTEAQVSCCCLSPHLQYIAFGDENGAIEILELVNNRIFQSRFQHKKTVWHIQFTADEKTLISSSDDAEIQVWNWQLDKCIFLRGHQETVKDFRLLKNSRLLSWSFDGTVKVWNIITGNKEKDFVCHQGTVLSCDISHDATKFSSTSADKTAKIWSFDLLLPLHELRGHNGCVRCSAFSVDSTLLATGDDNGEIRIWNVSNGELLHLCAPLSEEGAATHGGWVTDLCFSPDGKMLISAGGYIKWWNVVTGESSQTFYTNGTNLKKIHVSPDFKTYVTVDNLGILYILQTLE

[2] = target: T2, Sentrin-specific protease 7 (Homo sapiens, UniProt Q9BQF6);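 also: Luminescence-based dose-response confirmation of ultra-high-throughput screening hits, measuring inhibition of SENP7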
T2 sequence (Q9BQF6 whole entry): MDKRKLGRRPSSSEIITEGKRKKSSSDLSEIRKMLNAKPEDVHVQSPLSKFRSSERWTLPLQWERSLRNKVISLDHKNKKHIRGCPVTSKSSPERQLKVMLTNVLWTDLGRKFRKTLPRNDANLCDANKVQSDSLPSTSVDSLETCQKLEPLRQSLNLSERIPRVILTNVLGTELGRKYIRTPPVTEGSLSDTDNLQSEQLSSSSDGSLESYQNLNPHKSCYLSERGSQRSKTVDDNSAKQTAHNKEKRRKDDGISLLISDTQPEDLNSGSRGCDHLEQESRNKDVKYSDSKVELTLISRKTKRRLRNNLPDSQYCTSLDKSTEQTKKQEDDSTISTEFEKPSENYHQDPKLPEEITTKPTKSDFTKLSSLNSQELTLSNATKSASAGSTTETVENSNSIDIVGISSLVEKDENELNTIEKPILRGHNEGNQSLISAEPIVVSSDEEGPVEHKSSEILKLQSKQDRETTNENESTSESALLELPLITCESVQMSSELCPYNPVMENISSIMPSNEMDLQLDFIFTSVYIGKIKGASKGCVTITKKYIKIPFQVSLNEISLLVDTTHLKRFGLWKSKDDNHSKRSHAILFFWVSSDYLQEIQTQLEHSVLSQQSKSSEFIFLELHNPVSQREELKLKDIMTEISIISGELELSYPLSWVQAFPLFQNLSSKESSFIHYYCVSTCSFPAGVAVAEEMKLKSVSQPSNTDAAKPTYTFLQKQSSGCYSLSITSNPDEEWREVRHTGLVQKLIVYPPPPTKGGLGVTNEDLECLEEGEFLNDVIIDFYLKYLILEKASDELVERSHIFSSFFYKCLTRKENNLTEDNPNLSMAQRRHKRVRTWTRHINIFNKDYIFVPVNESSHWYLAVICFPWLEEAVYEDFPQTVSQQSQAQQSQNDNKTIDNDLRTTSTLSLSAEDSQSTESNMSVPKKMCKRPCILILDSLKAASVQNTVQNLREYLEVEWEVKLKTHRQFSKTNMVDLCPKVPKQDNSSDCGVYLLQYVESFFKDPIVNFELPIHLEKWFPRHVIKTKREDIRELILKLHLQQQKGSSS

Caspase-3 = target: T3, Caspase-3 (Homo sapiens, UniProt P42574);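 also: Dose-response selectivity test against caspase-3 for candidate inhibitors of sentrin-specific proteases (SENPs)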
T3 sequence (P42574 whole entry): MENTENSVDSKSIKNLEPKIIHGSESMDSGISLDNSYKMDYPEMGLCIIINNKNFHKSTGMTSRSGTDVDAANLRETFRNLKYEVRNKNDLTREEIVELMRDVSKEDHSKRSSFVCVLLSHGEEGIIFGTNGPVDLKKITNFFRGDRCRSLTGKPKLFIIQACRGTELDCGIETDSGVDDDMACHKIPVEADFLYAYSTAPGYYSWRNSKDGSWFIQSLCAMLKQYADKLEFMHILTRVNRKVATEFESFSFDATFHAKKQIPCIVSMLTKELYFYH

| SMILES | IC50 [1] | IC50 [2] | IC50 (Caspase-3) |
| --- | --- | --- | --- |
| O=C1C(Cl)=C(NCc2cccnc2)C(=O)c2ccccc21 | 10.1 µM (active) |  |  |
| Nc1ccc(Br)c2cccnc12 | 39.1 µM (active) | 9.77 µM (active) | 10.4 µM (active) |
| CN(C)c1ncc(C2=C(Cl)C(=O)C(N3CCCC3)=C(Cl)C2=O)s1 | 25 µM (active) |  |  |
| Cc1ccc(C(=O)c2c(C)oc3c2C(=O)C(=O)c2ccccc2-3)cc1 | 8.09 µM (active) | 6.7 µM (active) | 29.1 µM (active) |
| Cc1cnc(NC(=O)c2sc3ccccc3c2Cl)s1 |  | 2.6 µM (active) | 6.67 µM (active) |
| O=C1C(O)=C/C(=N\c2ccccc2O)c2ccccc21 | 2.61 µM (active) | 5.84 µM (active) | 8.23 µM (active) |
